Entries after “also recorded” stand apart in the source; their conditions may differ.
Columns and labels:
[1] = system: human peripheral blood mononuclear cells (PBMCs) stimulated with thapsigargin; assay: Suppression of thapsigargin-stimulated inflammatory cytokine production in human PBMCs; type: cell-based; settings: FIG. 2
Description: (§1) This Example explores the ability of pharmaceutical compositions including toxin-based therapeutic peptides disclosed herein to reduce pro-inflammatory cytokine secretion caused by thapsigargin (Sigma-Aldrich, St. Louis, Mo., USA). Thapsigargin stimulates proinflammatory cytokine release by inhibiting the Ca2+ ion pump proteins of intracellular membranes in the sarcoplasmic reticulum and endoplasmic reticulum of microsomes. This inhibition results in a rapid release of Ca2+ stores and subsequent activation of plasma membrane calcium channels.
(§2) Preparation of primary blood cells. Whole blood and peripheral blood mononuclear cells (PBMCs) were used to test the suitability of an ShK-based therapeutic peptide as disclosed herein for treating a subject with an ophthalmic condition including dry eye. Whole blood was directly aliquoted to cell culture for experimental assays without any additional processing.
PBMCs were isolated from donor blood by density gradient centrifugation as follows. Blood was collected in collection tubes containing sodium heparin as an anticoagulant and a cell separation medium including a polyester gel and a density gradient liquid (BD Vacutainer CPT). The samples were centrifuged at 1500 RCF for 20 minutes at room temperature. The cell layer containing mononuclear cells and platelets lies just below the plasma layer and was collected into a separate 15 mL conical tube using a Pasteur Pipette. The cells were washed twice with PBS and pelleted by centrifugation to remove the supernatant. The purified PBMCs were resuspended in complete RPMI (cRPMI) cell culture media and plated to the appropriate density for the assay.
(§3) Treatment of primary blood cells. ShK-186 was serially diluted in cRPMI to 4× final concentration working stock. 50 μL of working stock was added to 6 wells of a 96-well cell culture plate per concentration of ShK-based peptide. 50 μL of cRPMI without ShK-based peptide was used as control treatment in positive control (no ShK-based peptide, thapsigargin stimulus) and in negative control (no ShK-based peptide, no thapsigargin stimulus) wells. 100 μL whole blood or 200,000 PBMCs in complete RPMI was added to each well of the 96-well cell culture plate. Cells with ShK-based peptide or media control were incubated at 37° C. and 5% CO2 for one hour. After one hour, 50 μL of 40 uM thapsigargin stimulus was added to all wells except for negative control wells which received 50 μL 0.4% DMSO to 0.1% final concentration. Cells were incubated for 48 hours.
(§4) Analysis of ShK-based peptide treated and thapsigargin stimulated cells. 48 hours after stimulation by thapsigargin, 96-well plates were centrifuged at 2000 RPM for 5 minutes. The supernatant was carefully transferred to a sterile 96-well plate for sample analysis. Cytokines were detected using specific antibodies conjugated to magnetic beads and a secondary antibody that reacts with Streptavidin/Phycoerythrin to produce a fluorescent signal. The bound beads were detected and quantified using the Magpix instrument (Luminex Corp., Austin, Tex., USA), although similar techniques as are known in the art may be used to measure protein production, such as for example an ELISA, using methods of detection including fluorescent and colorimetric methods.

[2] = Local (eye) and systemic (plasma) drug levels after topical ocular administration, Sprague-Dawley rats, ELISA; type: in vivo, rat
Experimental: Three female 6-8 week old Sprague-Dawley rats (Indianapolis, Ind., USA) were dosed three times per day with topically administered 10 μL of P6N (sodium phosphate (10 mM), sodium chloride (0.8%), and Polysorbate 20 (0.05%) at pH 6.0) on the left eye (LE) and 10 μL of 0.5% ShK-186 in P6N on the right eye (RE) for 21 days. Blood was collected at 3, 7, 12, 14, 17, and 21 days and processed to plasma. […] ShK-186 levels in collected samples were measured using a standard direct ELISA method.

[3] = system: unstimulated or activated T cells or macrophages from dry-eye or uveitis patients; assay: Ex vivo cytokine expression in T cells or macrophages from dry eye or uveitis patients; type: cell-based, human; settings: ex vivo addition of ShK-186, intracellular staining/flow cytometry or multiplexing ELISA
Description: (§5) In order to carry out functional assays, PBMCs from uveitis or dry eye patients and healthy controls are isolated. In the first phase of the example, the cells are either tested shortly after […] without ex vivo stimulation or activated ex vivo with anti-CD3 and anti-CD28 antibodies or mitogens and then subjected to immunostaining and multicolor flow cytometry to study expression levels of Kv1.3 channel on the surface of TEM within the CD4 and CD8+ T-cell subsets. Cells isolated from patients are expected to be high in expression of Kv1.3 without stimulation ex vivo, but this expression could increase upon activation ex vivo. […] Cytokines including IFN-γ, IL-2, IL-4, IL-10, IL-17, IL-21, and IL-22, perforin, and granzyme B are detected by intracellular staining and flow cytometry in resting or activated cells in the presence or absence of toxin-based therapeutic peptide. Additionally, they can be quantitated by an assay such as multiplexing ELISA of collected supernatants. […] This reduction can be measured by quantification of [^3H] thymidine incorporation or the fluorescent dye CFSE, among other standard immunological methods.

[4] = system: human whole blood stimulated with thapsigargin; assay: Suppression of thapsigargin-stimulated inflammatory cytokine production in human whole blood; type: cell-based; settings: FIG. 1
Description: as §1, §2, §3, §4

[5] = system: rat model of experimental autoimmune anterior uveitis (EAAU); assay: Melanin associated antigen (MAA) induced experimental autoimmune anterior uveitis (EAAU) model; type: in vivo
Description: One model used to evaluate the therapeutic potential of ShK-186 in autoimmune eye diseases such as uveitis was the melanin associated antigen (MAA) induced experimental autoimmune anterior uveitis (EAAU). In this model, male Lewis rats 5-10 week old (Charles River) are immunized with MAA emulsified in complete Freund's adjuvant (CFA) subcutaneously and also receive a single intraperitoneal injection of pertussis toxin (0.2 to 1 mcg/animal). Symptoms of disease begin to appear by day 10 and peak by day 18 post immunization. The animals typically recover by day 25.
Preparation of the MAA. MAA was prepared following the procedure outlined by Simpsom et al., Eye 11, 206-208, (1997) with some modifications. The iris and ciliary body structure were dissected from 25 fresh pigmented cow eyes. The tissue was cut into small pieces and then homogenized in cold PBS. The homogenate was spun at 4000 g for 10 minutes, washed three times with PBS and then put through a detergent extraction with 2% Triton X-100, rotating for 3 hours at room temperature. The resulting material was again spun and washed three times with PBS and subject to another detergent extraction this time using 2% SDS, rotating for 3 hours at 37° C. This material was washed three times with PBS followed by three washes with H2O and a final wash with 70% ethanol. The MAA pellet was placed under a vacuum for approximately 15 min, resulting in dried antigen material stored frozen at −20° C.
Preparation of MAA:CFA emulsions. For the emulsion used for the experiment whose results are shown in FIG. 4, 50 milligrams of MAA were resuspended in 3.8 mL of PBS, and after vortexing briefly the suspension, was sonicated for 30 seconds three times incubating on ice for 30 seconds in between. This slurry was passed through a 100 μm cell strainer, thicker material was pressed through using a syringe plunger. The protein content of the suspension was determined to be 3.27 mg/mL using a commercially available BCA kit (Pierce 23225), and was stored frozen at −20° C. until use. On the day of immunization (day 0), the stock MAA was thawed at room temperature and vortexed briefly before a working dilution of 600 μg/mL was made. This solution was then mixed drop wise 1:1 with CFA while vortexing, for a final antigen concentration of 300 μg/mL (or 30 μg per animal). Emulsions were allowed to vortex an additional 5 minutes before being loaded into syringes and passed through an 18 G emulsifying bridge until very thick. Emulsions were injected the same day, 50 μL subcutaneous to each footpad, 100 μL total per animal, according to group. FIGS. 4A-D show the pathology associated with this disease model and the effects of ShK-186 topical administration on the occurrence and severity of disease.
Eyes were given individual scores based on pupil function (miosis), iris structure, presence of cells in the anterior chamber, and presence of protein in the anterior chamber (flare). Scores were then converted into a composite clinical score for each day.
For this analysis, sections of eyes previously fixed in 10% formalin were scored for iris and ciliary body structure and the degree of inflammatory cell infiltration to the stroma of the iris and/or ciliary body and anterior chamber according to disease parameters outlined by Kim et al., supra (1997); this was done by an independent veterinary pathologist. In FIG. 4C (1.) a control healthy eye (10×) is shown; (2.) & (4.) show the eye from an animal treated with vehicle that was scored a 2 (10×, 40×); (3.) & (5.) show the eye from an animal treated three times daily with 0.1% ShK-186 for 8 days followed by 1% ShK-186 for 10 days which was given a histopathology score of 0 (10×, 40×).
Clinical observations were made of each animal using a slit lamp on day 13 post induction of EAAU by immunization with an adjuvanted MAA emulsion. […]

[6] = system: T cells or macrophages from dry-eye or uveitis patients; assay: Ex vivo proliferation of T cells or macrophages during ex vivo activation; type: cell-based, human; settings: [3H] thymidine incorporation or CFSE
Description: as §5

[7] = PBMCs treated with ShK-186 one hour prior to thapsigargin, supernatant 48 hours after stimulation
[8] = PBMCs, thapsigargin stimulation
[9] = whole blood treated with ShK-186 one hour prior to thapsigargin, supernatant 48 hours after stimulation
[10] = whole blood, thapsigargin stimulation
[11] = day 18 post immunization, 0.1% then 1% ShK-186 topically

(L-PhosphoTyr)-AEEAc-RSCIDTIPKSRCTAFQCKHSMKYRLSFCRKTCGTC-amide [ShK-186]
suppression of IFN-γ level [1, 7]: suppressed; also recorded: dose-dependent manner
suppression of IL-2 level [1, 7]: suppressed; also recorded: dose-dependent manner
suppression of IL-4 level [1, 7]: suppressed; also recorded: dose-dependent manner
suppression of IL-17 level [1, 7]: suppressed; also recorded: dose-dependent manner
IC50, IFN-γ suppression [1, 8]: picomolar range
IC50, IL-2 suppression [1, 8]: picomolar range
IC50, IL-4 suppression [1, 8]: picomolar range
IC50, IL-17 suppression [1, 8]: picomolar range
ShK-186 in plasma (systemic exposure) ([2]; 0.5% ShK-186 topically to right eye three times per day for 21 days): no detectable and not
ShK-186 concentration in aqueous fluid of the treated right eye (RE) ([2]; 10 μL of 0.5% ShK-186 in P6N topically three times per day for 21 days, samples at 21 days): significant concentrations
ShK-186 in samples from the untreated left eye (LE) ([2]; right eye dosed 0.5% ShK-186 three times per day for 21 days, left eye vehicle): no detectable
expression of cytokines (IFN-γ, IL-2, IL-4, IL-10, IL-17, IL-21, IL-22, perforin, granzyme B) [3]: significantly reduces
suppression of IFN-γ level [4, 9]: dose-dependent manner; also recorded: suppressed
suppression of IL-2 level [4, 9]: dose-dependent manner; also recorded: suppressed
suppression of IL-4 level [4, 9]: dose-dependent manner; also recorded: suppressed
suppression of IL-17 level [4, 9]: dose-dependent manner; also recorded: suppressed
IC50, IFN-γ suppression [4, 10]: picomolar range
IC50, IL-2 suppression [4, 10]: picomolar range
IC50, IL-4 suppression [4, 10]: picomolar range
IC50, IL-17 suppression [4, 10]: picomolar range
gross pathology ([5]; ShK-186 topical administration versus vehicle (P6N), FIG. 4B): reduced
composite clinical score of animal 4-8 ([5]; day 18 post immunization, 0.1% ShK-186 for 9 days then 1% for 10 days topically, vehicle animal 3-2 scored 13): 0
cells in the anterior chamber score of animal 4-8 [5, 11]: 0
iris vessels and structure score of animal 4-8 [5, 11]: 0
protein in the anterior chamber (flare) score of animal 4-8 [5, 11]: 0
pupil score of animal 4-8 [5, 11]: 0
histopathology ([5]; eyes collected day 19 post immunization, H&E sections, FIG. 4C): reduces
composite clinical score versus vehicle ([5]; slit lamp, days 11, 13, 15, 18 post induction, topical three times daily 0.1% day 0-8 and 1% ShK-186 day 9-18, N=8 rats/16 eyes): significantly lower
histopathology score of an eye from a treated animal ([5]; three times daily 0.1% ShK-186 followed by 1% ShK-186 for 10 days, vehicle eye scored 2): 0
ex vivo proliferation of T cells or macrophages [6]: significantly reduces

(L-Tyr)-AEEAc-RSCIDTIPKSRCTAFQCKHSMKYRLSFCRKTCGTC-amide [ShK-198]
clinical score (cells in the anterior chamber; protein in the anterior chamber or flare) ([5]; slit lamp day 13 post induction, 1% ShK-198 topically three times daily versus P6N vehicle, N=10 rats/20 eyes): reduces

— patent US9937230B2, “Ophthalmic uses of toxin-based therapeutic peptides and pharmaceutical compositions thereof” (Kineta One, LLC, priority 2013, dated 2018)
